Assay results published in patent US10947243B2, “Heteroaryl SYK inhibitors” (Boehringer Ingelheim International GmbH, priority 2014, dated 2021).

Legend:
[1] = Human Liver Microsomal Stability Test; assay type: in vitro ADME; conditions: human liver microsomes; comparison compounds, Example numbers of WO 2013/014060
Procedure: The metabolic degradation for a specific SYK-inhibitor is performed at 37° C. with pooled human liver microsomes (human liver microsomes are commercially available as “BD UltraPool™” by Corning Life Sciences, Fogostraat 12, 1060 LJ Amsterdam, The Netherlands). The final incubation volume of 100 μl per time point contains TRIS buffer pH 7.6 at RT (0.1 M), magnesium chloride (5 mM), microsomal protein (1 mg/ml) and the test compound at a final concentration of 1 μM.
Following a short preincubation period at 37° C., the reaction is initiated by addition of beta-nicotinamide adenine dinucleotide phosphate in its reduced form (NADPH, 1 mM) and terminated by transfering an aliquot into solvent after different time points. Additionally, the NADPH-independent degradation is monitored in incubations without NADPH, terminated at the last time point.
The quenched (terminated) incubations are then pelleted by centrifugation (10000 g, 5 min).
An aliquot of the supernatant is assayed by LC-MS/MS for the remaining amount of parent compound. The half-life (t½ INVITRO) is determined by the slope of the semilogarithmic plot of the concentration-time profile.
The intrinsic clearance (CL_[…]) is calculated by considering the amount of protein in the incubation: CL_[…] [μl/min/mg protein]=(Ln 2/(t½INVITRO [min]*protein content [mg/ml]))*1000
The protein content [mg/ml] was determined with the “Bicinchoninic Acid Kit” of Sigma Aldrich (commercially available).
The upscaled intrinsic Clearance (CL_UP_INT) is calcuated by considering the liver weight [g liver/kg body weight] and the microsomal recovery [mg protein/g liver]: CL_UP_INT [ml/min/kg]=0.001*CL_[…]*liver weight*microsomal recovery • with microsomal recovery=45 mg protein/g liver • with liver weight=25.7 g liver/kg body weight
The percent hepatic blood flow (% Qh) is finally calculated by considering the human liver blood flow Q [ml/min/kg]: % Qh [%]=((Q*CL_UP_INT)/(Q+CL_UP_INT)/Q)*100 • with liver blood flow (Q)=20.7 ml/min/kg.

[2] = target: Recombinant human Aurora B (amino acids 1-344) (Homo sapiens (Human), UniProt Q96GD4); test: Aurora B Kinase Test (ADP Glo luminescence); assay type: biochemical; conditions: comparison compounds, Example numbers of WO 2013/014060; read-out: IC50 in μM (AURB-Inhibition)
Procedure: The activity of the Aurora B kinase protein was determined using the ADP Glo® Luminescence Kinase test (Promega; V9103X).
Serial Dilution is done in 1:10 steps in 100% DMSO.
Then 20 μl Kinase detection mix (Detection Buffer #V913B Promega; Kinase Detection Substrate #V914B Promega) were added and incubated for 40 minutes at room temperature.
(§1) The output file of the reader is a csv file that contains the well number and measured RLU. For data evaluation and calculation, the measurement of the negative control was set as 0% ctrl and the measurement of the positive control was set as 100% ctrl. Based on this values the % value for the measurement of each substance concentration was calculated using an Assay Explorer software (Accelrys). Normally, the % ctrl values calculated are between 0% and 100% values but may also occur outside these limits in individual cases based on variability or compound characteristics. The IC50 values were calculated from the % ctrl values using Assay Explorer software. Calculation: [y=(a−d)/(1+(x/c)^b)+d], a=low value, d=high value; x=conc M; c=IC50 M; b=hill; y=% ctrl.

[3] = target: FLT3 (Homo sapiens (Human), UniProt P36888); test: FLT3 Kinase Test (Z'-LYTE); assay type: biochemical; conditions: comparison compounds, Example numbers of WO 2013/014060; read-out: IC50 in μM (FLT3-Inhibition)
Procedure: The activity of FLT3 is measured using the Z′-LYTE™ assay technology from Invitrogen (#PV3191)
The reaction is started by addition of 2.5 μl of the 4×ATP solution.
(§2) Positive controls are reaction mixtures containing no test compound; negative controls (blanks) are reaction mixtures containing no kinase. As a further control, the phosphopeptide solution is added to wells without kinase (=100% phosphorylation control).
The reaction is performed for 1 h at room temperature before 5 μl of the development solution is added. After a further incubation for 1 h at room temperature 5 μl of the stop reagent is added.
The output text file is evaluated in an “MS-Excel-VB-Makro” and “GraphPadPrism” (Version 5) (GraphPad Software Inc.) is used to calculate the results. Data for the inhibition of FLT3 are reported in M. data for the inhibition of the protease are reported in % CTL.

[4] = target: Recombinant human Syk (amino acids 342-635) (Homo sapiens (Human), UniProt P43405); test: Syk Kinase Test (Kinase Glo luminescence); assay type: biochemical; conditions: comparison compounds, Example numbers of WO 2013/014060; read-out: IC50 in μM (SYK-Inhibition)
Procedure: as §1, with “measured relative light units (RLU).” for “measured RLU.”, “as 100%” for “as 0%”, “as 0%” for “as 100%”, “Calculation: [y=(a−d)/(1+(x/c)^b)+d]” for “Calculation: [y=(a−d)/(1+(x/c)^b)+d],”

[5] = target: Human GSK3beta (Homo sapiens (Human), UniProt P49841); test: GSK 3β Kinase-Test (Z'-LYTE); assay type: biochemical; conditions: comparison compounds, Example numbers of WO 2013/014060; read-out: IC50 in μM (GSK3beta-Inhibition)
Procedure: Human GSK3beta (expressed and prified from SF21 cells) is obtained from the University Dundee/Scotland (Dr. James Hastie—Dept. of Biochemistry) in 50 mM Tris (pH7.5); 150 mM NaCl; 0.1 mM EGTA, 270 mM Succrose, 0.1% B-mercaptoethanol, 1 mM benzamidine, 0.2 mM PMSF; sequence see below). The enzyme is diluted to 3.56 μM (168 μg/ml) in enzyme dilution buffer and 6 μl aliquots are stored at −80° C.
The activity of GSK3 kinase protein is measured using the Z′-LYTE™ assay technology from Invitrogen (# PV3324).
The assay is performed in 384 black plates from Corning (#3676) in a final volume of 10 μl by adding 5 μl of kinase peptide mix and 2.5 μl of compound dilution. The reaction is started by addition of 2.5 μl of the 4×ATP solution.
as §2, with “ATP.” for “kinase.”, “kinase and without ATP” for “kinase”, “control). The non inhibited kinase reaction will result in a phosphorylation corresponding to 20%-30% of the phosphorylation control.” for “control).”
The reaction is performed 1 h at room temperature. After 1 h 5 μl of the development solution is added. After a further incubation for 1 h at room temperature 5 μl of the stop reagent is added. Finally the plates are read on a Flex Station II 384 (Molecular Devices).
The output text file is evaluated in an “MS-Excel-VB-Makro” and “GraphPadPrism” (Version 5) (GraphPad Software Inc.) is used to calculate the results. Data for the inhibition of GSK3beta are reported in M. data for the inhibition of the protease are reported in % CTL.

Chain of Human GSK3beta (P49841 whole entry): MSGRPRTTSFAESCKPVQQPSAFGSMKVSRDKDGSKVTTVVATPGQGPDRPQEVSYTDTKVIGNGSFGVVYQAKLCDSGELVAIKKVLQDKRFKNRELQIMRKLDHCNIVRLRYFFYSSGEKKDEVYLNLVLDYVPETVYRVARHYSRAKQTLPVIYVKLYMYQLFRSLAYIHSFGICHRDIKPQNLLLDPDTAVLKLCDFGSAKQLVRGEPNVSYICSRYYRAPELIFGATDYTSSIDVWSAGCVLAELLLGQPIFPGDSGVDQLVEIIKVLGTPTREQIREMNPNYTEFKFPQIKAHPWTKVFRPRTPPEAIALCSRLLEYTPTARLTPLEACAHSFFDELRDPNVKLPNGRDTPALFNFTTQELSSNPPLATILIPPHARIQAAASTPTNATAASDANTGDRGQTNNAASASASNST
Chain of FLT3 (P36888 564-958): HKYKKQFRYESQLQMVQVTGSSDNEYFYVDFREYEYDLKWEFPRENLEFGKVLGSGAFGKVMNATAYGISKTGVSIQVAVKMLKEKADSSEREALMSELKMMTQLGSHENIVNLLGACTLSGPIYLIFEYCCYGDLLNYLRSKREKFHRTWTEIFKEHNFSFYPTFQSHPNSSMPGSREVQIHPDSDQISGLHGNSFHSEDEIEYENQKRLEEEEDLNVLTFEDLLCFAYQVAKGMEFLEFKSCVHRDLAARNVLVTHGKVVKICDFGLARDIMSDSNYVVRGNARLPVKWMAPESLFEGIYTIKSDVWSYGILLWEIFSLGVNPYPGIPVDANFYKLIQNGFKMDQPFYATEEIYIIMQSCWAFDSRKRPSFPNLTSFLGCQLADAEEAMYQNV
Chain of Recombinant human Aurora B (amino acids 1-344) (Q96GD4 whole entry, the tested form may be a part): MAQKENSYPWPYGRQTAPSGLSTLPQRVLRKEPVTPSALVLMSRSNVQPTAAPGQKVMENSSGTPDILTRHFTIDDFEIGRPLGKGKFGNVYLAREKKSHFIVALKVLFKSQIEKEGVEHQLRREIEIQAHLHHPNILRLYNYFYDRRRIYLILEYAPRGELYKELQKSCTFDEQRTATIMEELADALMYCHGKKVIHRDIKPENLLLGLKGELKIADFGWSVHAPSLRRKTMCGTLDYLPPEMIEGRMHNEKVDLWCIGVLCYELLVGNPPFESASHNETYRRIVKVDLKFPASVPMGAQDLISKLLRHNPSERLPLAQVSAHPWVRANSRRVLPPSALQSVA

Row | microsomal stability Cl [% Qh] [1] [% Qh] | IC50 [2] [µM] | IC50 [3] [µM] | IC50 [4] [µM] | IC50 [5] [µM] | SMILES
1 | 24 | 0.752 | 0.738 | 0.002 | > 10 | C[C@@H](Oc1nc(-c2cc3nn(C)cc3c(O[C@H](C)[C@H]3CNC(=O)C3)n2)cc2nn(C)cc12)[C@@H]1CNC(=O)C1 [Example 11, (4S)-4-[(1R)-1-[2-methyl-6-[2-methyl-4-[(1R)-1-[(3R)-5-oxopyrrolidin-3-yl]ethoxy]-pyrazolo[4,3-c]pyridin-6-yl]pyrazolo[4,3-c]pyridin-4-yl]oxyethyl]pyrrolidin-2-one]
2 | <23 | 2.96 | 1.25 | 0.006 | > 10 | Cc1c(-c2cc(O[C@H](C)[C@H]3CNC(=O)C3)c3cccnc3c2)cnn1C [compound 112]
3 | <23 | 0.021 | 0.041 | 0.0002 | > 10 | CC(C)n1cc(-c2cc(O[C@H](C)[C@H]3CNC(=O)C3)c3cccnc3c2)cn1 [compound 115]
